Format in all cases: biochemical
Test [1] deals with T1, ITK (Homo sapiens, UniProt Q08881).
T1 sequence (Q08881 1-620): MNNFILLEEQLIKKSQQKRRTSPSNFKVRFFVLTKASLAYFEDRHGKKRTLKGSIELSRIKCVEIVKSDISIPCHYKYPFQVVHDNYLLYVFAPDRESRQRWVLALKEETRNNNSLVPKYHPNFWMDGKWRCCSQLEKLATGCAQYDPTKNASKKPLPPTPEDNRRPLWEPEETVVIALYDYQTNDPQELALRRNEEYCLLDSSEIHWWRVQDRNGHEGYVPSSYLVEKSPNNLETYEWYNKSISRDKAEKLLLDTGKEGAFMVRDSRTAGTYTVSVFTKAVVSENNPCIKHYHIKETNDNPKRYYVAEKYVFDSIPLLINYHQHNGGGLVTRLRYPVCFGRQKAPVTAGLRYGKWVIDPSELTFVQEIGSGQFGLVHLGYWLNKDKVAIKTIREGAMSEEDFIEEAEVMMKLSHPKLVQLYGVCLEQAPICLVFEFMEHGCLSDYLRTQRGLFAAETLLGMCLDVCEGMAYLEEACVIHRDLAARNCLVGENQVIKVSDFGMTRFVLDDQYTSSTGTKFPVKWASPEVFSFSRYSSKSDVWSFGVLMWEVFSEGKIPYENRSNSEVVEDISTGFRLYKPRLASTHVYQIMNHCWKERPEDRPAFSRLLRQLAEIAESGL
Put plainly: ITK IC50 kinase inhibition assay.

The target in test [2] is BTK (Homo sapiens, UniProt Q06187). Put plainly: BTK IC50 kinase inhibition assay.
Chain of BTK (Q06187 whole entry): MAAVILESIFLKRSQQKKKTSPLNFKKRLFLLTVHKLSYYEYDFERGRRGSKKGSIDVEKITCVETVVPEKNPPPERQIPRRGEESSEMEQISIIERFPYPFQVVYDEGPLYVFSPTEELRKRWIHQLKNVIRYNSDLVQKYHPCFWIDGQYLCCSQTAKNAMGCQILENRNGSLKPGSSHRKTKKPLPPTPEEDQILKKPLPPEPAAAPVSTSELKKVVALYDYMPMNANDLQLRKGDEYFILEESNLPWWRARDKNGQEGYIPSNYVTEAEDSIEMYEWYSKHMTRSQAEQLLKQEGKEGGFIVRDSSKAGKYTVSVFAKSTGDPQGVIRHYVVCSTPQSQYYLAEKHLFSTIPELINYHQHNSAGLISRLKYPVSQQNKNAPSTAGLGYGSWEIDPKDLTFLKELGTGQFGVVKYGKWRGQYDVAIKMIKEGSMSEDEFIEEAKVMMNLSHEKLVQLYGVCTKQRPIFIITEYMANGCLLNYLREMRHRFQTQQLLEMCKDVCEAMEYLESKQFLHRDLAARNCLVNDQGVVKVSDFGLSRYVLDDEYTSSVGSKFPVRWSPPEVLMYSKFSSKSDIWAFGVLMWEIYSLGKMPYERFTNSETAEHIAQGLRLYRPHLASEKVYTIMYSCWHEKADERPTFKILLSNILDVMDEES
Test [3] has as its target T2, JAK3 (Homo sapiens, UniProt P52333).
T2 sequence (P52333 1-1124): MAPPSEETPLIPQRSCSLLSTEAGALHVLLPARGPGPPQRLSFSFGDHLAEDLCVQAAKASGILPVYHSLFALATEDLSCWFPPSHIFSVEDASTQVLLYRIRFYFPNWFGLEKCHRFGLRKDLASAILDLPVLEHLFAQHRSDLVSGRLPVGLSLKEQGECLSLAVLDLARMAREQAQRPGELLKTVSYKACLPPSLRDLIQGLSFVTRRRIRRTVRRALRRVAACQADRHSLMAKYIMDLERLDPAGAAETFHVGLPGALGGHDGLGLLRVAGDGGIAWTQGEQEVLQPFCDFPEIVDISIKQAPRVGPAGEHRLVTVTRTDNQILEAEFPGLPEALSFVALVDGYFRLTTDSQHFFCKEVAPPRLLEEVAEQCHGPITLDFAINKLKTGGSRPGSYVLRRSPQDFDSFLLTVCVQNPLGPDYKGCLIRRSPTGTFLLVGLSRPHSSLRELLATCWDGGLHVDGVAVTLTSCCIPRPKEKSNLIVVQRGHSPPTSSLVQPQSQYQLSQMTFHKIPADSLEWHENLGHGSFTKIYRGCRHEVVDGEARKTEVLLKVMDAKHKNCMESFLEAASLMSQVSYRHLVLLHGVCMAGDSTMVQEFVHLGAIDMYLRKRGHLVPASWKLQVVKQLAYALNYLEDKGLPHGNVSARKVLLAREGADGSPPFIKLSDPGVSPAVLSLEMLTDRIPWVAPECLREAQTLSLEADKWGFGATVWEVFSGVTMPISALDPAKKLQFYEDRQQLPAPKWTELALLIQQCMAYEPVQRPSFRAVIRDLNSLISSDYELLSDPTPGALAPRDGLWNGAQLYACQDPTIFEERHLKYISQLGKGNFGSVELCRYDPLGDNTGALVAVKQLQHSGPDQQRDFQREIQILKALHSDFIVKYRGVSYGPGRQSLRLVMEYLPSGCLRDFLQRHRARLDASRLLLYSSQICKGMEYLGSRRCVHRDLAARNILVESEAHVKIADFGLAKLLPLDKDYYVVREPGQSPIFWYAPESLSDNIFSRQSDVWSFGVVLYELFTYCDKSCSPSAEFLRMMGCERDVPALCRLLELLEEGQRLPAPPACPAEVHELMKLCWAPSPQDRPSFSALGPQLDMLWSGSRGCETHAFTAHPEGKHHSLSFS
In words: JAK3 IC50 kinase inhibition assay.

The target in test [4] is T3, RLK (Homo sapiens, UniProt P42681).
T3 sequence (P42681 1-527): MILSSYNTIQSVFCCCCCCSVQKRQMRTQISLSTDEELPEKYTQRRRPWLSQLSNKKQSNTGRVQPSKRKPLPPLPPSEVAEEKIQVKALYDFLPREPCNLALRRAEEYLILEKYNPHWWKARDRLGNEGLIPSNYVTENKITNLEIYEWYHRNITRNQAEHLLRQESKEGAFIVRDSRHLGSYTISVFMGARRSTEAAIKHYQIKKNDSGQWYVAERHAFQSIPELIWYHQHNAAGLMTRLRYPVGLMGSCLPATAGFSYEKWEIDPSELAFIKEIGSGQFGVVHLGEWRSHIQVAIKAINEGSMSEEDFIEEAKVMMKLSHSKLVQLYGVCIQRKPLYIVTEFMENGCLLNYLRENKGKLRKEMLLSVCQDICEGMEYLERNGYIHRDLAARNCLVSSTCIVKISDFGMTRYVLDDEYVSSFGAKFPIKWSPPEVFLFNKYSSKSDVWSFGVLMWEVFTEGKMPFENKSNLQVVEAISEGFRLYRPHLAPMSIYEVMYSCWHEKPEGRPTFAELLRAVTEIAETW
In words: RLK IC50 kinase inhibition assay.

The target of test [5] is T4, TXK (Homo sapiens, UniProt P42681).
T4 sequence (P42681 1-527): T3 sequence (P42681 1-527)
In words: TXK IC50 kinase inhibition assay.

With `C=CC(=O)N1CCC[C@@H](n2nc(-c3ccc(Oc4ccccc4)cc3)c3cnc(N)nc32)C1` [Compound A11], the half-inhibitory concentration (IC50) – broadly, the concentration at which inhibition is half-maximal – in test [1] is greater than 500 nM; in test [2], less than 100 nM; in test [3] it was greater than 500 nM; in test [4], 100 to 500 nM.

Consider `CC#CC(=O)N1CC[C@H]1Cn1nc(-c2ccc(Oc3ccccc3)cc2)c2cncnc21` [Compound A66, (S)-1-(2-((3-(4-phenoxyphenyl)-1H-pyrazolo[3,4-d]pyrimidin-1-yl)methyl)azetidin-1-yl)but-2-yn-1-one], for which the IC50 in test [1] is greater than 500 nM; in test [2] it was 100 to 500 nM; in test [3], greater than 500 nM; in test [5] it was greater than 500 nM.

Consider `CC#CC(=O)N1CC[C@@H]1Cn1nc(-c2ccc(Oc3ccccc3)cc2)c2cncnc21` [Compound A67, (R)-1-(2-((3-(4-phenoxyphenyl)-1H-pyrazolo[3,4-d]pyrimidin-1-yl)methyl)azetidin-1-yl)but-2-yn-1-one], for which the half-maximal inhibitory concentration (IC50) in test [1] is greater than 500 nM; in test [2], 100 to 500 nM; in test [3], greater than 500 nM; in test [5], greater than 500 nM.

Consider `CC#CC(=O)N1CCC2(CC1)CC(n1nc(-c3ccc(Oc4ccccc4)cc3)c3cncnc31)C2` [Compound A68, 1-(2-(3-(4-phenoxyphenyl)-1H-pyrazolo[3,4-d]pyrimidin-1-yl)-7-azaspiro[3.5]nonan-7-yl)but-2-yn-1-one], for which the IC50 in test [1], in test [2], in test [3] and in test [5] was greater than 500 nM each time.

For `CC#CC(=O)N[C@H]1C[C@H](n2nc(-c3ccc(Oc4ccccc4)cc3)c3cncnc32)C1` [Compound A69, N-((1r,3r)-3-(3-(4-phenoxyphenyl)-1H-pyrazolo[3,4-d]pyrimidin-1-yl)cyclobutyl)but-2-ynamide], the IC50 in test [1] was greater than 500 nM; in test [2] it was less than 100 nM; in test [3], greater than 500 nM; in test [5], greater than 500 nM.

As for `CC#CC(=O)N[C@H]1CC[C@H](n2nc(-c3ccc(Oc4ccccc4)cc3)c3cncnc32)CC1` [Compound A70, N-((1r,4r)-4-(3-(4-phenoxyphenyl)-1H-pyrazolo[3,4-d]pyrimidin-1-yl)cyclohexyl)but-2-ynamide], the IC50 in test [1], in test [2], in test [3] and in test [5] was greater than 500 nM in each case.

Take `CCC#CC(=O)N1CC2(CC(n3nc(-c4ccc(Oc5ccccc5)cc4)c4cncnc43)C2)C1` [Compound A71, 1-(6-(3-(4-phenoxyphenyl)-1H-pyrazolo[3,4-d]pyrimidin-1-yl)-2-azaspiro[3.3]heptan-2-yl)pent-2-yn-1-one]: the IC50 in test [1] is greater than 500 nM; in test [2] it was 100 to 500 nM; in test [3] it was greater than 500 nM; in test [5], 100 to 500 nM.

With `C=CC(=O)N1CCC[C@@H](n2nc(-c3ccc(Oc4ccccc4)cc3)c3cncc(C#N)c32)C1` [Compound A72, (R)-1-(1-acryloylpiperidin-3-yl)-3-(4-phenoxyphenyl)-1H-pyrazolo[4,3-c]pyridine-7-carbonitrile], the half-inhibitory concentration (IC50) in test [1] was greater than 500 nM; in test [2] it was less than 100 nM; in test [3], greater than 500 nM; in test [5] it was less than 100 nM.

As for `C=CC(=O)N1CC[C@@H](n2nc(-c3ccc(Oc4ccccc4)cc3)c3cncc(C#N)c32)C1` [Compound A73, (R)-1-(1-acryloylpyrrolidin-3-yl)-3-(4-phenoxyphenyl)-1H-pyrazolo[4,3-c]pyridine-7-carbonitrile], the IC50 was greater than 500 nM in test [1], less than 100 nM in test [2], greater than 500 nM in test [3] and less than 100 nM in test [5].

As to `C=CC(=O)N1CCC[C@H]1Cn1nc(-c2ccc(Oc3ccccc3)cc2)c2cncc(C#N)c21` [Compound A74, (S)-1-((1-Acryloylpyrrolidin-2-yl)methyl)-3-(4-phenoxyphenyl)-1H-pyrazolo[4,3-c]pyridine-7-carbonitrile], the IC50 in test [1] is greater than 500 nM; in test [2] it was less than 100 nM; in test [3], greater than 500 nM; in test [5] it was greater than 500 nM.

Consider `CN(C)CC#CC(=O)N1CC2(CC(n3nc(-c4ccc(Oc5ccccc5)cc4)c4cncnc43)C2)C1` [Compound A75, 4-(dimethylamino)-1-(6-(3-(4-phenoxyphenyl)-1H-pyrazolo[3,4-d]pyrimidin-1-yl)-2-azaspiro[3.3]heptan-2-yl)but-2-yn-1-one], for which the IC50 in test [1] is 100 to 500 nM; in test [2], less than 100 nM; in test [3] it was 100 to 500 nM; in test [5], less than 100 nM.

Consider `CN1CCN(CC#CC(=O)N2CC3(CC(n4nc(-c5ccc(Oc6ccccc6)cc5)c5cncnc54)C3)C2)CC1` [Compound A76, 4-(4-Methylpiperazin-1-yl)-1-(6-(3-(4-phenoxyphenyl)-1H-pyrazolo[3,4-d]pyrimidin-1-yl)-2-azaspiro[3.3]heptan-2-yl)but-2-yn-1-one], for which the IC50 in test [1] was greater than 500 nM; in test [2] it was less than 100 nM; in test [3], greater than 500 nM; in test [5], less than 100 nM.

Turning to `O=C(C#CCN1CCCCC1)N1CC2(CC(n3nc(-c4ccc(Oc5ccccc5)cc4)c4cncnc43)C2)C1` [Compound A77, 1-(6-(3-(4-Phenoxyphenyl)-1H-pyrazolo[3,4-d]pyrimidin-1-yl)-2-azaspiro[3.3]heptan-2-yl)-4-(piperidin-1-yl)but-2-yn-1-one], the IC50 in test [1] is greater than 500 nM; in test [2] it was less than 100 nM; in test [3] it was greater than 500 nM; in test [5], less than 100 nM.

For `O=C(C#CC1CC1)N1CC2(CC(n3nc(-c4ccc(Oc5ccccc5)cc4)c4cncnc43)C2)C1` [Compound A78, 3-Cyclopropyl-1-(6-(3-(4-phenoxyphenyl)-1H-pyrazolo[3,4-d]pyrimidin-1-yl)-2-azaspiro[3.3]heptan-2-yl)prop-2-yn-1-one], the IC50 in test [1] was greater than 500 nM; in test [2] it was 100 to 500 nM; in test [3], greater than 500 nM; in test [5], greater than 500 nM.

For `COCC#CC(=O)N1CC2(CC(n3nc(-c4ccc(Oc5ccccc5)cc4)c4cncnc43)C2)C1` [Compound A79, 4-Methoxy-1-(6-(3-(4-phenoxyphenyl)-1H-pyrazolo[3,4-d]pyrimidin-1-yl)-2-azaspiro[3.3]heptan-2-yl)but-2-yn-1-one], the IC50 in test [1] was greater than 500 nM; in test [2] it was less than 100 nM; in test [3] it was greater than 500 nM; in test [5] it was less than 100 nM.

These data come from US10870652B2, “Compounds and methods for modulating bruton's tyrosine kinase” (CORVUS PHARMACEUTICALS, INC., priority 2016, dated 2020).
